Test results published in patent US6639107B1, “Cyclopentyl sulfonamide derivatives” (Eli Lilly and Company, priority 1999, dated 2003).

Question: With CC(C)S(=O)(=O)N[C@H]1CCC[C@@H]1c1ccc(Br)cc1 (racemic) [Example 48, (+,−) Trans Propane-2-sulfonic Acid [2-(4-bromo-phenyl)-cyclopentyl]-amide] as the compound, how does the melting point read?
Answer: 128 to 130 °C
